The subject of the assay is P388 leukemia ip, CD2F1 mice, survival T/C. Description: NCI In Vivo Anticancer Drug Screen. Data for tumor model P388 Leukemia (intraperitoneal) in CD2F1 (CDF1) mice. The note with it: endpoint: median survival time, higher = longer survival. In outline:
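Mice carrying the transplanted tumor received test compound or vehicle. Survival was recorded in each group, and the value is the treated-group measurement divided by that of the vehicle-treated control group.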

Where [1] appears, read: dose: 50.0 mg/kg/injection, schedule: Q01DX005 (ip), vehicle: saline with Tween-80.
Where [2] appears, read: dose: 100.0 mg/kg/injection, schedule: Q01DX005 (ip), vehicle: saline with Tween-80.
Setting [3] is: dose: 200.0 mg/kg/injection, schedule: Q01DX005 (ip), vehicle: saline with Tween-80.
Where [4] appears, read: dose: 60.0 mg/kg/injection, schedule: Q01DX005 (ip), vehicle: saline with Tween-80.
The mark [5] stands for this setting: dose: 120.0 mg/kg/injection, schedule: Q01DX005 (ip), vehicle: saline with Tween-80.
Where [6] appears, read: dose: 12.5 mg/kg/injection, schedule: Q01DX009 (ip), vehicle: saline.
[7] abbreviates: dose: 25.0 mg/kg/injection, schedule: Q01DX009 (ip), vehicle: saline.
[8] abbreviates: dose: 100.0 mg/kg/injection, schedule: Q04DX003 (ip), vehicle: saline.
Where [9] appears, read: dose: 50.0 mg/kg/injection, schedule: Q01DX009 (ip), vehicle: saline.
Where [10] appears, read: dose: 100.0 mg/kg/injection, schedule: Q01DX009 (ip), vehicle: saline.

Values joined by “and” are separate entries in the source; they are usually repeats but may differ in a detail not shown here. Equal values may be shown once. Toxic doses and inconclusive results are not listed.

With `OCC1SC(O)C(O)C(O)C1O` (centres undefined), the T/C (dose: 120.0 mg/kg/injection, schedule: Q##DX005 (ip), vehicle: saline) was 97 % of control; the T/C (dose: 240.0 mg/kg/injection, schedule: Q##DX005 (ip), vehicle: saline) was 92 % of control; the T/C (dose: 600.0 mg/kg/injection, schedule: Q01DX001 (ip), vehicle: saline) was 102 % of control and 104 % of control; the T/C (dose: 1200.0 mg/kg/injection, schedule: Q01DX001 (ip), vehicle: saline) is 100 % of control and 104 % of control.
`CCOC1(OCC)N(S(=O)(=O)c2ccc(C)cc2)C(=O)C(=O)N1S(=O)(=O)c1ccc(C)cc1`: the T/C by setting is: (dose: 100.0 mg/kg/injection, schedule: Q04DX002 (ip), vehicle: saline) 100 % of control; (dose: 200.0 mg/kg/injection, schedule: Q04DX002 (ip), vehicle: saline) 106 % of control; (dose: 400.0 mg/kg/injection, schedule: Q04DX002 (ip), vehicle: saline) 103 % of control.
As to `COc1nc(N=[N+]=[N-])nc(-c2c(OC)ccc3ccccc23)n1`, the T/C was 105 % of control (dose: 25.0 mg/kg/injection, schedule: Q01DX005 (ip), vehicle: saline with Tween-80); 96 % of control under setting [1]; 89 % of control under setting [2]; 89 % of control under setting [3].
On to `Cc1cc2c(c(=O)o1)C1(C)CC(C)(O2)c2c(cc(C)oc2=O)O1`, for which the T/C is 99 % of control under setting [4]; 95 % of control under setting [5]; 89 % of control (dose: 240.0 mg/kg/injection, schedule: Q01DX005 (ip), vehicle: saline with Tween-80).
`CCN(CC)CCNc1ncnc2c1cnn2C`: the T/C (dose: 12.5 mg/kg/injection, schedule: Q01DX005 (ip), vehicle: saline) is 106 % of control; the T/C (dose: 25.0 mg/kg/injection, schedule: Q01DX005 (ip), vehicle: saline) is 106 % of control; the T/C under setting [1] is 99 % of control; the T/C (dose: 50.0 mg/kg/injection, schedule: Q01DX005 (ip), vehicle: saline) was 106 % of control.
With `Cc1ccc2c(Nc3ccc(NS(C)(=O)=O)cc3C)c3ccccc3nc2c1`, the T/C runs as follows: under setting [6], 150 % of control and 161 % of control; (dose: 12.5 mg/kg/injection, schedule: Q04DX003 (ip), vehicle: saline) 98 % of control; under setting [7], 156 % of control and 157 % of control; (dose: 25.0 mg/kg/injection, schedule: Q04DX003 (ip), vehicle: saline) 96 % of control; (dose: 50.0 mg/kg/injection, schedule: Q04DX003 (ip), vehicle: saline) 97 % of control; under setting [8], 95 % of control.
With `CC1=C(CO)C(=O)OC(C(C)C2CCC3C4CC5OC56C(O)C(N5CCCCC5)CC(=O)C6(C)C4CCC23C)C1` (centres undefined), the T/C (dose: 7.0 mg/kg/injection, schedule: Q01DX005 (ip), vehicle: Klucel (hydroxypropylcellulose) (HPC)) was 101 % of control; the T/C (dose: 14.0 mg/kg/injection, schedule: Q01DX005 (ip), vehicle: Klucel (hydroxypropylcellulose) (HPC)) was 94 % of control; the T/C (dose: 28.0 mg/kg/injection, schedule: Q01DX005 (ip), vehicle: Klucel (hydroxypropylcellulose) (HPC)) was 96 % of control; the T/C (dose: 56.0 mg/kg/injection, schedule: Q01DX005 (ip), vehicle: Klucel (hydroxypropylcellulose) (HPC)) was 101 % of control; the T/C (dose: 112.0 mg/kg/injection, schedule: Q01DX005 (ip), vehicle: Klucel (hydroxypropylcellulose) (HPC)) was 97 % of control.
With `COc1cc2c(cc1OC)C[N+]1(C)CCc3cc(OC)c(OC)cc3C1C2` (centres undefined), the T/C by setting is: (dose: 10.0 mg/kg/injection, schedule: Q01DX009 (ip), vehicle: saline) 111 % of control; (dose: 20.0 mg/kg/injection, schedule: Q01DX009 (ip), vehicle: saline) 111 % of control.
Turning to `COc1ccc(CC(=O)O)cc1OC` (tested in a mixture with another compound), the T/C reads like this: (dose: 100.0 mg/kg/injection, schedule: Q01DX009 (ip), vehicle: saline sonified) 100 % of control; (dose: 200.0 mg/kg/injection, schedule: Q01DX009 (ip), vehicle: saline sonified) 100 % of control; (dose: 400.0 mg/kg/injection, schedule: Q01DX009 (ip), vehicle: saline sonified) 100 % of control.
For the molecule `CCOC(=O)c1cn2ccccc2c(C(C)=O)c1=N`, the T/C was 100 % of control under setting [8]; 100 % of control (dose: 200.0 mg/kg/injection, schedule: Q04DX003 (ip), vehicle: saline); 94 % of control (dose: 400.0 mg/kg/injection, schedule: Q04DX003 (ip), vehicle: saline).
Regarding `CC(C)OC(=S)SCC(=O)c1ccc(C(F)(F)F)cc1`, the T/C is, setting by setting: (dose: 50.0 mg/kg/injection, schedule: Q01DX009 (ip), vehicle: saline with Tween-80) 105 % of control; (dose: 100.0 mg/kg/injection, schedule: Q01DX009 (ip), vehicle: saline with Tween-80) 104 % of control; (dose: 200.0 mg/kg/injection, schedule: Q01DX009 (ip), vehicle: saline with Tween-80) 98 % of control; (dose: 400.0 mg/kg/injection, schedule: Q01DX009 (ip), vehicle: saline with Tween-80) 100 % of control.
For `O=[N+]([O-])c1cnc(/C=[N+](\[O-])C2CCCCC2)n1CCO`, the T/C was 98 % of control under setting [9]; 100 % of control under setting [10]; 102 % of control (dose: 200.0 mg/kg/injection, schedule: Q01DX009 (ip), vehicle: saline).
For the molecule `COc1ccc2c(c1)OC(C)(C)C(c1ccccc1)=C2c1ccc2c(c1)NC(=O)CO2`, the T/C is, setting by setting: under setting [1], 99 % of control; under setting [2], 90 % of control; under setting [3], 94 % of control.
Consider `CN(C)CCCNc1c2ccccc2nc2cc([N+](=O)[O-])ccc12`, for which the T/C (dose: 0.1 mg/kg/injection, schedule: Q01DX009 (ip), vehicle: water) was 103 % of control; the T/C (dose: 0.2 mg/kg/injection, schedule: Q01DX009 (ip), vehicle: water) is 104 % of control; the T/C (dose: 0.39 mg/kg/injection, schedule: Q01DX009 (ip), vehicle: water) was 100 % of control; the T/C (dose: 0.78 mg/kg/injection, schedule: Q01DX009 (ip), vehicle: water) is 100 % of control and 117 % of control; the T/C (dose: 1.56 mg/kg/injection, schedule: Q01DX009 (ip), vehicle: water) was 102 % of control and 108 % of control; the T/C (dose: 3.13 mg/kg/injection, schedule: Q01DX009 (ip), vehicle: water) is 123 % of control. Besides, the T/C (dose: 6.25 mg/kg/injection, schedule: Q01DX009 (ip), vehicle: water) was 95 % of control.
`O[C@]12C=C[C@H](CCCC1)O2`: the T/C is 107 % of control under setting [1], 108 % of control under setting [2] and 111 % of control under setting [3].
As for `CCCCCCC(=O)OCCN1CCN(CC/C=C2\c3ccccc3Sc3ccc(C(F)(F)F)cc32)CC1`, the T/C was 100 % of control and 95 % of control under setting [6]; 98 % of control (dose: 12.5 mg/kg/injection, schedule: Q01DX009 (ip), vehicle: suspension in saline); 112 % of control under setting [7]; 102 % of control and 94 % of control (dose: 25.0 mg/kg/injection, schedule: Q01DX009 (ip), vehicle: suspension in saline); 106 % of control and 95 % of control under setting [9]; 100 % of control and 123 % of control and 92 % of control (dose: 50.0 mg/kg/injection, schedule: Q01DX009 (ip), vehicle: suspension in saline). Moreover, the T/C was 99 % of control and 113 % of control under setting [10]; 107 % of control (2×) and 92 % of control (dose: 100.0 mg/kg/injection, schedule: Q01DX009 (ip), vehicle: suspension in saline).
With `COC(=O)/C=c1\sc2n(c1=O)CCCCN=2`, the T/C is 86 % of control (dose: 60.0 mg/kg/injection, schedule: Q01DX005 (ip), vehicle: Klucel (hydroxypropylcellulose) (HPC)); 93 % of control (dose: 120.0 mg/kg/injection, schedule: Q01DX005 (ip), vehicle: Klucel (hydroxypropylcellulose) (HPC)); 100 % of control (dose: 240.0 mg/kg/injection, schedule: Q01DX005 (ip), vehicle: Klucel (hydroxypropylcellulose) (HPC)).
As for `C1=CC2C(O1)OC2c1ccc2ccccc2c1` (centres undefined), the T/C runs as follows: (dose: 7.5 mg/kg/injection, schedule: Q01DX005 (ip), vehicle: Klucel + Tween-80) 114 % of control; (dose: 15.0 mg/kg/injection, schedule: Q01DX005 (ip), vehicle: Klucel + Tween-80) 100 % of control and 97 % of control; (dose: 30.0 mg/kg/injection, schedule: Q01DX005 (ip), vehicle: Klucel + Tween-80) 89 % of control; (dose: 60.0 mg/kg/injection, schedule: Q01DX005 (ip), vehicle: Klucel + Tween-80) 89 % of control and 97 % of control.
As for `CCOC(=O)c1c(Cl)c(CC)c(N=[N+]=[N-])n2c1nc1ccccc12`, the T/C is 101 % of control under setting [4] and 101 % of control under setting [5].

The values above are taken from PubChem BioAssay AID330 (DTP/NCI, 2004).
